Measured values published in patent US11123439B2, “Antibody drug conjugates (ADCS) and antibody prodrug conjugates (APDCS) with enzymatically cleavable groups” (Bayer Pharma Aktiengesellschaft, priority 2015, dated 2021).

Target: T1, legumain (Homo sapiens, UniProt Q99538)
T1 construct: purchased R&D Systems 2199-CY
T1 sequence (Q99538 18-323 limits assumed): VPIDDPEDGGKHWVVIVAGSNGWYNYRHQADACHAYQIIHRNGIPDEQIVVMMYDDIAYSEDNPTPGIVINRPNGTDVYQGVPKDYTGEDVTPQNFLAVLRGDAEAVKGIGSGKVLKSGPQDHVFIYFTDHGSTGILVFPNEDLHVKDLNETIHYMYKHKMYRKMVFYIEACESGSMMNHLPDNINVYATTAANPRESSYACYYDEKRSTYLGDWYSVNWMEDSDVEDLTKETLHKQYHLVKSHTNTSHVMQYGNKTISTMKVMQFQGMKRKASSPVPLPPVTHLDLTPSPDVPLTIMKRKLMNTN
Assay: Legumain assay (enzymatic cleavage of prodrug)
Type: biochemical
Conditions: recombinant human legumain, rh legumain 1 ng/μl, 50 mM MES buffer, 250 mM NaCl, pH 5.0, read-out: half-life of legumain cleavage to the target compound (converted)
Procedure: The legumain assay was conducted with recombinant human enzyme. The rh legumain enzyme solution (catalogue #2199-CY, R&D Systems) was diluted to the desired concentration in 50 mM Na acetate buffer/100 mM NaCl, pH4.0 and preincubated at 37° C. for 2 h. rh legumain was then adjusted to a final concentration of 1 ng/μl in 50 mM MES buffer, 250 mM NaCl, pH 5.0. For every legumain-cleavable prodrug to be examined, a mixture was made up in a micro reaction vessel (0.5 ml, from Eppendorf). For this purpose, the substrate solution was adjusted to the desired concentration (double concentration) with 50 mM MES buffer, 250 mM NaCl, pH 5.0. For the kinetic measurement of the enzymatic reaction, 250 μl of the legumain solution were first initially charged and the enzyme reaction was started by adding 250 μl of the substrate solution (final concentration: single concentration). At different times, 50 μL samples were taken. This sample was admixed immediately with 100 μl of ice-cold methanol in order to stop the enzymatic reaction and then frozen at −20° C. The times selected for sampling were after 0.5 h, 1 h, 3 h and 24 h. The samples were then analysed by means of RP-HPLC analysis and by LC-MS analysis. The determination of the toxophore released enabled the determination of the half-life t1/2 of the enzymatic reaction. […]

Compound: CNC(=O)[C@H](CCN(C(=O)CO)[C@@H](c1cc(-c2cc(F)ccc2F)cn1Cc1ccccc1)C(C)(C)C)NC(=O)[C@H](CC(N)=O)NC(=O)[C@H](C)NC(=O)[C@H](C)NC(=O)Cc1ccncc1 [Compound A, N-(Pyridin-4-ylacetyl)-L-alanyl-L-alanyl-N^1-[(2S)-4-[{(1R)-1-[1-benzyl-4-(2,5-difluorophenyl)-1H-pyrrol-2-yl]-2,2-dimethylpropyl}(glycoloyl)amino]-1-(methylamino)-1-oxobutan-2-yl]-L-aspartamide]
- half-life: 1.1 h
